Laboratory results reported in patent publication US9393236B2, “Use of 4-cyclopropylmethoxy-N-(3,5-dichloro-1-oxido-4-pyridin-4-yl)-5-(methoxy)pyridine-2-carboxamide in the treatment of cranial traumas” (SANOFI, priority 2007, dated 2016).

Tests used:
ferret = experiment: Evaluation of the emetic effects in the ferret; assay type: in vivo
Protocol: The emetic capacity of 4-cyclopropylmethoxy-N-(3,5-dichloro-1-oxidopyridin-4-yl)-5-(methoxy)pyridine-2-carboxamide was evaluated in the ferret. Two groups of ferrets were used, the first receiving the carrier (PEG200) and the second receiving 4-cyclopropyl methoxy-N-(3,5-dichloro-1-oxidopyridin-4-yl)-5-(methoxy)pyridine-2-carboxamide in solution in the carrier (PEG 200), by oral gavage. The animals were observed continually for the 2 hours following the administration, and then every hour up to 6 hours after the administration. The clinical signs (in particular retching and vomiting) were noted.
The emetic capacity of (R)-(−)-rolipram was evaluated in the ferrets. Two groups of ferrets were used, the first being given the carrier (PEG200) and the second being given the (((4R)-4-[3-(cyclopentyloxy)-4-methoxyphenyl]pyrrolidine-2-one)) in solution in the carrier (PEG 200), by oral gavage, at doses of 0.05 mg/kg and of 0.1 mg/kg. The animals were observed continually for the 2 hours following administration, and then once an hour up to 6 hours after the administration. The clinical signs were noted.

[1] = tested on: rats with parietal cranial trauma; experiment: CFR (Conditioned Freezing Response) test after a parietal cranial trauma; assay type: in vivo, rat (Sprague-Dawley); details: rat; 0.05 mg/kg i.v. 4 h after surgery (D0), then 0.1 mg/kg/day per os twice a day D1-D21; CFR measured D23/D24; p<0.001 vs traumatized animal given the carrier
Protocol: After general anaesthesia, rats (Sprague-Dawley, male, 150-200 g, Charles River) are placed in a stereotaxis frame. A craniotomy is performed at the level of the parietal cortex (AP: 3.5 mm; LAT: 7 mm and 3.5 mm below the cranial roof). A catheter connected to an HPLC pump is placed in contact with the dura mater and a pressure of 0.073 Kpsi is exerted.
The animals are treated intravenously 4 h after the surgery (D0) by administering a solution of 4-cyclopropylmethoxy-N-(3,5-dichloro-1-oxidopyridin-4-yl)-5-(methoxy)pyridine-2-carboxamide in the carrier (PEG200/physiological saline (NaCl 0.9%)), at the dose of 0.05 mg/kg.
Starting from D1 and up to D21 post-surgery, the animals are treated with a solution containing 4-cyclopropylmethoxy-N-(3,5-dichloro-1-oxidopyridin-4-yl)-5-(methoxy)pyridine-2-carboxamide in the carrier (methylcellulose (MC) (0.6%)+tween-80 (0.5%) in water) per os, twice a day, at the total daily dose of 0.1 mg/kg.
The deficiency in the CFR was measured at days D23 and D24 post-surgery.
At D23, the animal is placed in a box, where it receives an electric shock of 0.6 mA for 1.5 s.
At D24, the animal is again placed in the same box and the duration of immobility is measured for 3 minutes.

[2] = 0.1 mg/kg by oral gavage in PEG200, observed up to 6 hours

| Compound | emetic effects (retching and vomiting) (ferret; [2]) | inhibition of the deficiency (immobility time in CFR) induced by a cranial trauma [1] [%] | emetic effects (retching and vomiting) (ferret; 0.05 mg/kg by oral gavage in PEG200, observed up to 6 hours) |
| --- | --- | --- | --- |
| COc1cnc(C(=O)Nc2c(Cl)c[n+]([O-])cc2Cl)cc1OCC1CC1 [4-Cyclopropylmethoxy-N-(3,5-dichloro-1-oxidopyridin-4-yl)-5-(methoxy)pyridine-2-carboxamide] | induces no retching or vomiting | 100 | – |
| COc1ccc([C@@H]2CNC(=O)C2)cc1OC1CCCC1 [(R)-(−)-rolipram, (4R)-4-[3-(cyclopentyloxy)-4-methoxyphenyl]pyrrolidine-2-one] | induces vomiting | – | induces vomiting |
